Results published in ChEMBL document CHEMBL2157953, “Identification of aminopyridazine-derived antineuroinflammatory agents effective in an Alzheimer's mouse model” (ACS Med Chem Lett, 2012).
Calls of active or inactive are those of the source. No cut-off for these calls is given here.

Columns and labels:
BV-2 = test: Antineuroinflammatory activity in mouse BV2 cells assessed as inhibition of LPS-induced IL-1beta production after 16 hrs by ELISA; assay type: functional, cell-based; conditions: BV-2, 16 h
Mus musculus [1] = test: Antialzheimer activity in Kunming mouse assessed as reversal of amyloid beta (1 to 42)-induced impairments in spartial recognition memory at 2.5 mg/kg, po qd measured on day 3 and 4 by morris water maze test; assay type: functional, organism-based; parameters: dose 2.5 mg/kg
Mus musculus [2] = test: Antialzheimer activity in Kunming mouse assessed as reversal of amyloid beta (1 to 42)-induced decrease of swimming percentage of path length at 2.5 mg/kg, po qd measured on day 13 by morris water maze test; assay type: functional, organism-based; parameters: dose 2.5 mg/kg
Mus musculus [3] = test: Antialzheimer activity in Kunming mouse assessed as reversal of amyloid beta (1 to 42)-induced decrease of swimming time spent in target quadrant at 2.5 mg/kg, po qd measured on day 13 by morris water maze test; assay type: functional, organism-based; parameters: dose 2.5 mg/kg
[4] = Tmax in rat brain at 2.5 mg/kg, po; assay type: ADME, organism-based; parameters: dose 2.5 mg/kg, route oral
[5] = Oral bioavailability in rat at 2.5 mg/kg; assay type: ADME, organism-based; conditions: in vivo
Mus musculus [6] = test: Antialzheimer activity in Kunming mouse assessed as reversal of amyloid beta (1 to 42)-induced impairments in spartial recognition memory at 0.65 mg/kg, po qd measured on day 3 and 4 by morris water maze test; assay type: functional, organism-based; parameters: dose 0.65 mg/kg
Mus musculus [7] = test: Antialzheimer activity in Kunming mouse assessed as reversal of amyloid beta (1 to 42)-induced decrease of swimming percentage of path length at 0.656 mg/kg, po qd measured on day 13 by morris water maze test; assay type: functional, organism-based; parameters: dose 0.656 mg/kg
Mus musculus [8] = test: Antialzheimer activity in Kunming mouse assessed as reversal of amyloid beta (1 to 42)-induced decrease of swimming time spent in target quadrant at 0.65 mg/kg, po qd measured on day 13 by morris water maze test; assay type: functional, organism-based; parameters: dose 0.65 mg/kg

Question: For Cc1ccc(-c2cc(C)c(N3CCN(c4ncccn4)CC3)nn2)cc1, which IC50 (BV-2) is on record?
Answer: The IC50 was 17.2 µM.

Question: Which IC50 (BV-2) does the source give for Cc1cc(-c2ccnc3ccccc23)nnc1N1CCN(c2ncccn2)CC1 here?
Answer: The IC50 was 66.5 µM.

Question: Which IC50 (BV-2) does the source give for Cc1cc(-c2ccc(F)cc2)nnc1N1CCN(c2ncccn2)CC1 here?
Answer: Its IC50 is 76.3 µM.

Question: Which IC50 (BV-2) does the source give for Cc1cc(-c2ccccc2)nnc1N1CCN(c2ncccn2)CC1 here?
Answer: Its IC50 is 11.4 µM.

Question: For Cc1cc(C(C)C)nnc1N1CCN(c2ncccn2)CC1, which IC50 (BV-2) is on record?
Answer: The IC50 was over 100 µM.

Question: Which IC50 (BV-2) does the source give for Cc1cc(-c2ccc3[nH]ccc3c2)nnc1N1CCN(c2ncccn2)CC1 here?
Answer: The IC50 was 85.1 µM.

Question: With Cc1cc(-c2ccsc2)nnc1N1CCN(c2ncccn2)CC1 as the molecule, how does the IC50 (BV-2) read?
Answer: The IC50 was 2.4 µM.

Question: What about the Activity (Mus musculus [1]) of the same molecule?
Answer: The Activity was “Active”.

Question: And the Activity (Mus musculus [2])?
Answer: Its Activity is “Active”.

Question: And the Activity (Mus musculus [3])?
Answer: Its Activity is “Active”.

Question: And the Tmax [4]?
Answer: Its Tmax is 19.8 min.

Question: And the bioavailability [5]?
Answer: The bioavailability was 17.4%.

Question: For Cc1cc(-c2cc3ccccc3s2)nnc1N1CCN(c2ncccn2)CC1, which IC50 (BV-2) is on record?
Answer: Its IC50 is 24.9 µM.

Question: What does the source list for COc1cc2c(cc1OC)C(=O)C(CC1CCN(Cc3ccccc3)CC1)C2 (configuration not stated)?
Answer: Activity (Mus musculus [6]): Active; Activity (Mus musculus [7]): Active; Activity (Mus musculus [8]): Active

Question: With COc1ncc(-c2cc(C)c(N3CCN(c4ncccn4)CC3)nn2)c(OC)n1 as the molecule, how does the IC50 (BV-2) read?
Answer: Its IC50 is over 100 µM.

Question: For Cc1ccnnc1N1CCN(c2ncccn2)CC1, which IC50 (BV-2) is on record?
Answer: The IC50 was over 100 µM.

Question: With Cc1cc(-c2ccncc2)nnc1N1CCN(c2ncccn2)CC1 as the molecule, how does the IC50 (BV-2) read?
Answer: Its IC50 is over 100 µM.

Question: With Cc1cc(-c2cccc(F)c2)nnc1N1CCN(c2ncccn2)CC1 as the molecule, how does the IC50 (BV-2) read?
Answer: Its IC50 is 33.5 µM.

Question: With Cc1cc(C)c(N2CCN(c3ncccn3)CC2)nn1 as the molecule, how does the IC50 (BV-2) read?
Answer: Its IC50 is over 100 µM.

Question: With Cc1cc(-c2ccc(C(F)(F)F)cc2)nnc1N1CCN(c2ncccn2)CC1 as the molecule, how does the IC50 (BV-2) read?
Answer: Its IC50 is 37.4 µM.

Question: With Cc1cc(-c2cccnc2)nnc1N1CCN(c2ncccn2)CC1 as the molecule, how does the IC50 (BV-2) read?
Answer: The IC50 was over 100 µM.

Question: With Cc1cc(-c2cncnc2)nnc1N1CCN(c2ncccn2)CC1 as the molecule, how does the IC50 (BV-2) read?
Answer: Its IC50 is over 100 µM.

Question: With Cc1cc(Cl)nnc1N1CCN(c2ncccn2)CC1 as the molecule, how does the IC50 (BV-2) read?
Answer: The IC50 was over 100 µM.

Question: Which IC50 (BV-2) does the source give for COc1ccc(-c2cc(C)c(N3CCN(c4ncccn4)CC3)nn2)cc1 here?
Answer: Its IC50 is 5.2 µM.

Question: Which IC50 (BV-2) does the source give for COc1cccc(-c2cc(C)c(N3CCN(c4ncccn4)CC3)nn2)c1 here?
Answer: The IC50 was 2.6 µM.
